The results in this text go back to ChEMBL document CHEMBL5104097, “Discovery of Cysteine-targeting Covalent Protein Kinase Inhibitors” (J Med Chem, 2022).

Assay [1] relates to BaF3. The experiment in a line: Antiproliferative activity against mouse BaF3 cells harboring wild-type FGFR1 assessed as reduction in cell proliferation measured after 72 hrs by MTS assay. It counts as functional, cell-based. The following applies: BaF3, 72 h.
In assay [2] the test system is BaF3. The experiment in a line: Antiproliferative activity against mouse BaF3 cells harboring wild-type FGFR2 assessed as reduction in cell proliferation measured after 72 hrs by MTS assay. Format: functional, cell-based. Particulars: BaF3, 72 h.
For assay [3], the system named is BaF3. The experiment in a line: Antiproliferative activity against mouse BaF3 cells harboring wild-type FGFR3 assessed as reduction in cell proliferation measured after 72 hrs by MTS assay. It counts as functional, cell-based. The following applies: BaF3, 72 h.
The test system of assay [4] is BaF3. The experiment in a line: Antiproliferative activity against mouse BaF3 cells harboring wild-type FGFR4 assessed as reduction in cell proliferation measured after 72 hrs by MTS assay. It counts as functional, cell-based. Particulars: BaF3, 72 h.
For assay [5], the system named is BaF3. The assay is described as follows: Antiproliferative activity against mouse BaF3 cells harboring FGFR2 V564M mutant assessed as reduction in cell proliferation measured after 72 hrs by MTS assay. Format: functional, cell-based. Particulars: BaF3, 72 h.
The nature of assay [6]: Inhibition of SRC T338M mutant (unknown origin). Details: species or system Homo sapiens.

For `C=CC(=O)Nc1ccc(CN2C(=O)N(c3cc(OC)cc(OC)c3)Cc3cnc(Nc4ccc(N5CCN(C)CC5)cc4)nc32)cc1`, the EC50 in the assay with BaF3 [1] was found to be 1 nM; in the assay with BaF3 [2], 1 nM; in the assay with BaF3 [3], 1 nM; in the assay with BaF3 [4] it was 1 nM; with BaF3 [5] it was 58 nM.
Take `C=CC(=O)Nc1ccc(CN(C(=O)Nc2c(Cl)c(OC)cc(OC)c2Cl)c2cc(Nc3ccc(N4CCN(C)CC4)cc3)ncn2)cc1`: the half-maximal effective concentration (EC50) in the assay on BaF3 [1] was 1 nM; with BaF3 [2] it was 1 nM; in the assay with BaF3 [3], 1 nM; in the assay on BaF3 [4], 1 nM; with BaF3 [5], 64 nM.
In assay [6], `C=CS(=O)(=O)NCCC(=O)Nc1cccc(Nc2nccc(Nc3ncc(C(=O)Nc4c(C)cccc4Cl)s3)n2)c1` came in with an IC50 of 44 nM.
